# Key:
# DENV2 [1] = test: DENV2 infectivity inhibition (anti-NS4B immunofluorescence) in A549 cells; format: cell-based, Dengue virus type 2; conditions: Dengue virus
# DENV2 CprME/JEV SRIPs = test: E protein-mediated attachment assay with chimeric DENV2 CprME/JEV SRIPs on Vero E6 cells; format: cell-based, Dengue virus type 2; conditions: Dengue virus, DENV2, Vero C1008, 1 h, read-out: IC50 of E-mediated attachment against DENV2 CprME/JEV SRIPs
# Protocol: Figure 6 Attachment inhibition of chimeric DENV2 CprM-E/JEV and wild-type JEV SRIPs by active GL conjugates. Vero E6 cells were pre-cooled and incubated with freshly prepared mixtures of DENV2 CprM-E/JEV or wild-type JEV SRIPs, with active GL derivatives 3 (A), 6 (B), 11 (C), and 21 (D) at 4 °C for 1 h, respectively. After the removal of the mixtures, the cells were kept at 37 °C for 18 h and then an immunofluorescent assay with anti-JEV NS5 antibodies plus DAPI staining was performed. Finally, the inhibition percentage of SRIP attachment infectivity was measured as follows: 1-(percentage of JEV NS5 positivity in treated cells/percentage of JEV NS5 positivity in mock-treated cells). * p < 0.05; *** p < 0.001 compared with untreated, infected cells.
# (§1) DNA-launched cytomegaloviruses (CMV) promoter-driven JEV and ZIKV replicons had been constructed, as described in our prior reports. […] After the removal of the mixture (the compound and SRIP), the cells were incubated at 37 °C for 18 h, and then were analyzed by immunofluorescent assay with anti-JEV NS3 and anti-ZIKV NS5 antibodies, respectively, plus DAPI staining for determining the residual infectivity of wild-type and chimeric SRIPs, as described above.
# DENV2 [2] = test: DENV2-induced cytopathic effect (CPE) reduction screening in Vero E6 cells; format: cell-based, Dengue virus type 2; conditions: Dengue virus, Vero C1008; 10 μM compound, DENV2, Vero E6 cells, 96 h; read-out: CPE Reduction at 10 μM
# Protocol: In the antiviral screening assay, each tested GL conjugate at 10 μM was used to survey the anti-DENV activity in Vero E6 cells using cytopathic effect (CPE) and infectivity reduction assays as described in our prior report. In CPE and infectivity reduction assays, Vero E6 cells were infected by DENV2 at an MOI of 0.005 and simultaneously treated 10 μM of indicated GL conjugate for 96 h, and then photographed by microscope for examining the levels of DENV2-induced CPE in infected cells treated with or without GL conjugate. Meanwhile, the cells were further performed using immunofluorescence assay (IFA) with anti-DENV NS4B antibodies (GeneTex, Inc., Hsinchu, Taiwan) and anti-rabbit IgG antibodies conjugated with AF555 (ThermoFisher, Waltham, MA, USA) plus DAPI (4′,6-diamidino-2-phenylindole) nuclear staining. Finally, the DENV-2 infectivity was measured according to the ratio of DENV NS4B-positive cells to DAPI-stained cells in the well of mock-treated or treated cells, as described in [45, 59, 60].
# wild-type ZIKV SRIPs = test: Attachment assay with wild-type ZIKV SRIPs on Vero E6 cells; format: cell-based, Zika virus; conditions: 4 °C for 1 h
# Protocol: Figure 7 Attachment inhibition of chimeric DENV2 prM-E/ZIKV and wild-type ZIKV SRIPs by active GL derivatives 3 and 11. Vero E6 cells were pre-cooled and incubated with fresh-prepared mixtures of DENV2 prM-E/ZIKV or wild-type ZIKV SRIPs, with active GL derivatives 3 (A), and 11 (B) at 4 °C for 1 h, respectively. After the removal of the mixtures, the cells were kept at 37 °C for 18 h and then an immunofluorescent assay with anti-ZIKV NS1 antibodies plus DAPI staining was performed. Finally, the inhibition percentage of SRIP attachment infectivity was measured as follows: 1-(percentage of ZIKV NS1 positivity in treated cells/ percentage of ZIKV NS1 positivity in mock-treated cells). * p < 0.05; *** p < 0.001 compared with untreated, infected cells.
# as §1
# [3] = MTT cytotoxicity assay in Vero E6 cells; format: cell-based; conditions: African green monkey
# Protocol: Vero E6 cells and A549 cells (5 × 10^3 cells/well) were treated with the serial dilution of GL conjugates at 0, 0.1, 10, 20, and 50 μM for examining the in vitro cytotoxicity of tested compounds. After 96-h incubation at 37 °C, the cells were incubated with MTT (3-(4,5-Dimethylthiazol-2-yl)-2,5-Diphenyltetrazolium Bromide) solution for another 4 h incubation, mixed with DMSO for 15 min after the removal of media, and then measured the absorbance at 570 nm. The viability (%) of treated cells was quantified according to the reduced ability of MTT. Finally, the concentration for reducing 50% cell viability (the 50% cytotoxic concentration, CC50) was determined by regression analysis of the concentration–response survival curve.
Compound,IC50 (DENV2 [1]) [nM],IC50 (DENV2 CprME/JEV SRIPs) [nM],inhibition at 10 µM (DENV2 [2]) [%],Attachment of wild-type ZIKV SRIPs onto Vero E6 cells (wild-type ZIKV SRIPs),CC50 at 96 h [3] [nM]
"COC(=O)[C@H](NC(=O)[C@H]1O[C@@H](O[C@H]2[C@H](OC3CC[C@@]4(C)C(CC[C@]5(C)C4C(=O)C=C4C6C[C@@](C)(C(=O)O)CC[C@]6(C)CC[C@]45C)C3(C)C)O[C@H](C(=O)N[C@@H](C(=O)OC)C(C)C)[C@@H](O)[C@@H]2O)[C@H](O)[C@@H](O)[C@@H]1O)C(C)C (stereo partly drawn) [Compound 3, 3-O-{2-O-[N-(β-D-Glucopyranosyluronoyl)-D-valinemethyl ester]-N-(β-D-glucopyranosyluronoyl)-D-valinemethyl ester}-(3β, 20β)-11-oxo-30-noroleane-12-ene-30-oic Acid]",120 ± 28,6690,75 to 100,did not impede,> 100000
"CCOC(=O)[C@H](Cc1ccccc1)NC(=O)[C@H]1O[C@@H](O[C@H]2[C@H](OC3CC[C@@]4(C)C(CC[C@]5(C)C4C(=O)C=C4C6C[C@@](C)(C(=O)O)CC[C@]6(C)CC[C@]45C)C3(C)C)O[C@H](C(=O)N[C@@H](Cc3ccccc3)C(=O)OCC)[C@@H](O)[C@@H]2O)[C@H](O)[C@@H](O)[C@@H]1O (stereo partly drawn) [Compound 11, 3-O-{2-O-[N-(β-D-Glucopyranosyluronoyl)-L-phenylalanineethyl ester]-N-(β-D-Glucopyranosyluronoyl)-L-phenylalanineethyl ester}-(3β, 20β)-11-oxo-30-noroleane-12-ene-30-oic Acid]",1560 ± 490,2820,75 to 100,did not impede,> 100000

# Reference: PMC9499324, “Glycyrrhizic Acid Derivatives Bearing Amino Acid Residues in the Carbohydrate Part as Dengue Virus E Protein Inhibitors: Synthesis and Antiviral Activity” (International Journal of Molecular Sciences, 2022)
